Experiments:
MKK4 [1] = biological target: T1, MKK4 (Homo sapiens, UniProt P45985); assay: KINOMEscan competition binding assay, MKK4; settings: residual percent of control binding (PoC) at 100 nM
T1 construct: S84/D399; host or cells: HEK-293
T1 sequence (P45985 84-399): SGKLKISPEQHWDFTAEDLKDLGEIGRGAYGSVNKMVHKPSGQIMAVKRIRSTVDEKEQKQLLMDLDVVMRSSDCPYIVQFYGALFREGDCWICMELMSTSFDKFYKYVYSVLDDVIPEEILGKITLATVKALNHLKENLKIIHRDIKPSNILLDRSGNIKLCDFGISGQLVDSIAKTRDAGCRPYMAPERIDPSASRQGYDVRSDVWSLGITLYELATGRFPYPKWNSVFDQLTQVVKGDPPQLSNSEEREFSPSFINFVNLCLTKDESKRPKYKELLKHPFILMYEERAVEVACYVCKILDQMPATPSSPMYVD
Protocol: (§1) The assay was performed by combining three components: DNA-tagged kinase; immobilized ligand; and a test compound. The ability of the test compound to compete with the immobilized ligand was measured via quantitative PCR of the DNA tag. The technology is described in detail in Fabian, M. A. et al. A small molecule-kinase interaction map for clinical kinase inhibitors. Nat. […] Nat.
(§2) For investigation of the affinity to MKK4, BRaf, MKK7 and JNK1, the kinases were produced in HEK-293 cells and subsequently tagged with DNA for qPCR detection. […] The liganded beads were blocked with excess biotin and washed with blocking buffer (SEABLOCK™ (Pierce), 1% BSA, 0.05% TWEEN®20, 1 mM DTT) to remove unbound ligand and to reduce nonspecific binding. […] All reactions were performed in polystyrene 96-well plates in a final volume of 0.135 mL. […] The kinase concentration in the eluates was measured by qPCR.
(§3) The test compounds were provided as 10 mM stock solutions. The test solutions at indicated final concentrations were prepared at DiscoverX.
Potency of representative examples against the protein kinases MKK4, BRaf, MKK7 and JNK1 expressed as residual percent of control binding (PoC), was determined at a concentration of 100 nM. The determined potencies are categorized as follows: […]

BRaf = biological target: T2, BRaf (Homo sapiens, UniProt P15056); assay: KINOMEscan competition binding assay, BRaf; settings: ratio PoC (off-target)/PoC (MKK4)
T2 construct: purchased ProQinase GmbH, Freiburg, Germany (33PanQinase Assay Service)
T2 sequence (P15056 whole entry, species assumed): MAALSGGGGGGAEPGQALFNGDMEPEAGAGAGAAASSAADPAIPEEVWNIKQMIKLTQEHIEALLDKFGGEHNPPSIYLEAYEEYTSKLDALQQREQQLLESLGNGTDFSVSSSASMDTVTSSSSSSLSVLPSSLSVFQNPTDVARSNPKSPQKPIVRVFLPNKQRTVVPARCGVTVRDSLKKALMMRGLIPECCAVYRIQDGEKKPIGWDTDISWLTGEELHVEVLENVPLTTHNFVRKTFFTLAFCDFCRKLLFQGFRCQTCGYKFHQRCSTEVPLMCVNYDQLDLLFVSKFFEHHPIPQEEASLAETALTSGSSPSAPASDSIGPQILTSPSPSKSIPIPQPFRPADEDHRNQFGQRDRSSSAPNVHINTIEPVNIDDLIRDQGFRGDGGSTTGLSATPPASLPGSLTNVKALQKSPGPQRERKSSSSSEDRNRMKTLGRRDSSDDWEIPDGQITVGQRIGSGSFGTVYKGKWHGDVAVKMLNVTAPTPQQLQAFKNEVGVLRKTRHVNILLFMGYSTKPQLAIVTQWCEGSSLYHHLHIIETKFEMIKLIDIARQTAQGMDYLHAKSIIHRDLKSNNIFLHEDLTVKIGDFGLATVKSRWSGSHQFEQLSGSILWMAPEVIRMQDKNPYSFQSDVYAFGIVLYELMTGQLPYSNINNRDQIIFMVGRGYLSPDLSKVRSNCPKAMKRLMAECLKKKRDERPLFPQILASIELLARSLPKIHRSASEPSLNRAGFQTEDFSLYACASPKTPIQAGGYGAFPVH
Protocol: as §1, §2, §3
(§4) Potency of representative examples against the protein kinases MKK4, BRaf, MKK7 and JNK1 expressed as residual percent of control binding (PoC), was determined at a concentration of 100 nM. The determined potencies are categorized as follows:
(§5) The binding selectivity of representative examples against the protein kinases BRaf, MKK7 and JNK1, altogether denominated as “off-targets” is determined by the ratios of PoC (off-target)/PoC (MKK4).

MKK7 = biological target: T3, MKK7 (Homo sapiens, UniProt O14733); assay: KINOMEscan competition binding assay, MKK7; design: M1/R419; host or cells: HEK-293; settings: ratio PoC (off-target)/PoC (MKK4)
T3 sequence (O14733 1-419): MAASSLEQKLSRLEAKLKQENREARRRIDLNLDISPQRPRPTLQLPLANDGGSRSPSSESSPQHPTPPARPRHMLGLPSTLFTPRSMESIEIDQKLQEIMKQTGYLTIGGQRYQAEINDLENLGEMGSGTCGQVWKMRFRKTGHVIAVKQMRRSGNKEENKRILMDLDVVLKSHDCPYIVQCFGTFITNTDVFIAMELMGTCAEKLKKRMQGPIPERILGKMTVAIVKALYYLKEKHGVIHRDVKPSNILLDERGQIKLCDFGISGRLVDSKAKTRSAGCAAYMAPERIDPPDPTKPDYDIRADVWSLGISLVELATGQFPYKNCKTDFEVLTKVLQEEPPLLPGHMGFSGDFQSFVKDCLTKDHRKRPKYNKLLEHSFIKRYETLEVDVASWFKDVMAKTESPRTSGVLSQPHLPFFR
Protocol: as §1, §2, §3, §4, §5

JNK1 = JNK1 (Homo sapiens, UniProt P45983); assay: KINOMEscan competition binding assay, JNK1; design: M1/Q384; host or cells: HEK-293; settings: ratio PoC (off-target)/PoC (MKK4)
Chain of JNK1 (P45983 1-384 isoform P45983-2): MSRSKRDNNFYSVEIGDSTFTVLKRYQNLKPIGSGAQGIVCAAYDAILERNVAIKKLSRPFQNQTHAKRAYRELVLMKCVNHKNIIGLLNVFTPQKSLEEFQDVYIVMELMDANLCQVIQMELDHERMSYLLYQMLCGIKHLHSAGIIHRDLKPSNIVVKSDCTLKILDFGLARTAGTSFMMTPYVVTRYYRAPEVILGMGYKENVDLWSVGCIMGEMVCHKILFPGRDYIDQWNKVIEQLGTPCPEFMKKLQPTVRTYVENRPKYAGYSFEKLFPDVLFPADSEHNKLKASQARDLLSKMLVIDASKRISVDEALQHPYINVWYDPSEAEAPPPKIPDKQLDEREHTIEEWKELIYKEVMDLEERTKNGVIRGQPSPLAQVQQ
Protocol: as §1, §2, §3, §4, §5

MKK4 [2] = biological target: T4, MKK4 (Homo sapiens, UniProt P45985); assay: 33PanQinase enzyme assay, MKK4; type: biochemical; settings: assay 'IC50'; read-out: Potency MKK4 (IC50)
T4 construct: purchased ProQinase GmbH, Freiburg, Germany (33PanQinase Assay Service)
T4 sequence (P45985 1-399): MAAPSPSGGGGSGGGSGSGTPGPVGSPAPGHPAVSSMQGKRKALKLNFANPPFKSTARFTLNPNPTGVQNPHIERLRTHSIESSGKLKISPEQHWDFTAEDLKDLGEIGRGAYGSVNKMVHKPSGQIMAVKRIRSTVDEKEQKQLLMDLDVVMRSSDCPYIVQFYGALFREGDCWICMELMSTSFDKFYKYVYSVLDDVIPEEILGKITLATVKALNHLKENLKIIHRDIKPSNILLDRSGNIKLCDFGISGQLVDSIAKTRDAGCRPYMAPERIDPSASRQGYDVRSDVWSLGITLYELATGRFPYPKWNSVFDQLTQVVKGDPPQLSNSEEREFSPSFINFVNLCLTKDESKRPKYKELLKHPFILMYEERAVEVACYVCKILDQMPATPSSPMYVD
How it was run: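 Radiometric 33PanQinase assay: kinase, substrate, ATP and compound in standard buffer, 60 min at 30 °C; 33Pi incorporation read by scintillation counting.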

SMILES | MKK4 [% Ctrl @ 100 nM (MKK4 [1]) | selectivity based on % Ctrl @100 nM vs. Braf (BRaf) | selectivity based on % Ctrl @100 nM vs. MKK7 (MKK7) | selectivity based on % Ctrl @100 nM vs. JNK1 (JNK1) | IC50 (MKK4 [2])
C#Cc1cnc2[nH]cc(C(=O)c3c(F)ccc(NS(=O)(=O)CCC)c3F)c2c1 [Example 18, N-(3-(5-ethynyl-1H-pyrrolo[2,3-b]pyridine-3-carbonyl)-2,4-difluorophenyl) propane-1-sulfonamide] | + (3 ≤ PoC < 30) | ◯ (3 ≥ Ratio) | + (10 ≥ ratio > 3) | + (10 ≥ ratio > 3) | –
O=C(c1cccc(NS(=O)(=O)Cc2ccccc2)c1F)c1c[nH]c2ncc(-c3cc4c(cc3Cl)OCCO4)cc12 [Example 127, N-(3-(5-(7-chloro-2,3-dihydrobenzo[b][1,4]dioxin-6-yl)-1H-pyrrolo[2,3-b]pyridine-3-carbonyl)-2-fluorophenyl)-1-phenylmethanesulfonamide] | ++ (1 ≤ PoC < 3) | – | – | – | 0.1 to 1 µM
CCCS(=O)(=O)Nc1cc(Cl)cc(C(=O)c2c[nH]c3ncc(-c4ccc(Cl)cc4)cc23)c1 [Example 16, N-(3-chloro-5-(5-(4-chlorophenyl)-1H-pyrrolo[2,3-b]pyridine-3-carbonyl)phenyl)propane-1-sulfonamide] | ◯ (30 ≤ PoC) | ◯ (3 ≥ Ratio) | ◯ (3 ≥ Ratio) | ◯ (3 ≥ Ratio) | –
CCCCS(=O)(=O)Nc1ccc(F)c(C(=O)c2c[nH]c3ncc(-c4ccc(F)cc4C)cc23)c1F [Example 19, N-(2,4-difluoro-3-(5-(4-fluoro-2-methylphenyl)-1H-pyrrolo[2,3-b]pyridine-3-carbonyl)phenyl)butane-1-sulfonamide] | + (3 ≤ PoC < 30) | ++ (100 ≥ ratio > 10) | ++ (100 ≥ ratio > 10) | ++ (100 ≥ ratio > 10) | –
COc1ccc(-c2cnc3[nH]cc(C(=O)c4c(F)ccc(NS(=O)(=O)Cc5ccccc5)c4F)c3c2)cc1 [Example 26, N-(2,4-difluoro-3-(5-(4-methoxyphenyl)-1H-pyrrolo[2,3-b]pyridine-3-carbonyl)phenyl)-1-phenylmethanesulfonamide] | ++ (1 ≤ PoC < 3) | ++ (100 ≥ ratio > 10) | ++ (100 ≥ ratio > 10) | ++ (100 ≥ ratio > 10) | –
CCCCS(=O)(=O)Nc1ccc(F)c(C(=O)c2c[nH]c3ncc(-c4ccc(OC)cc4Cl)cc23)c1F [Example 21, N-(3-(5-(2-chloro-4-methoxyphenyl)-1H-pyrrolo[2,3-b]pyridine-3-carbonyl)-2,4-difluorophenyl)butane-1-sulfonamide] | ++ (1 ≤ PoC < 3) | ++ (100 ≥ ratio > 10) | ++ (100 ≥ ratio > 10) | ++ (100 ≥ ratio > 10) | –
CCCS(=O)(=O)Nc1cc(Br)cc(C(=O)c2c[nH]c3ncc(-c4ccc(Cl)cc4)cc23)c1 [Example 13, N-(3-bromo-5-(5-(4-chlorophenyl)-1H-pyrrolo[2,3-b]pyridine-3-carbonyl)-phenyl)propane-1-sulfonamide] | ◯ (30 ≤ PoC) | ◯ (3 ≥ Ratio) | ◯ (3 ≥ Ratio) | ◯ (3 ≥ Ratio) | –
CCCS(=O)(=O)Nc1ccc(F)c(C(=O)c2c[nH]c3ncc(-c4ccc(N5CCN(C(C)=O)CC5)cc4)cc23)c1F [Example 24, N-(3-(5-(4-(4-acetylpiperazin-1-yl)phenyl)-1H-pyrrolo[2,3-b]pyridine-3-carbonyl)-2,4-difluorophenyl)propane-1-sulfonamide] | + (3 ≤ PoC < 30) | ◯ (3 ≥ Ratio) | ++ (100 ≥ ratio > 10) | + (10 ≥ ratio > 3) | –
CCCNS(=O)(=O)c1cccc(C(=O)c2c[nH]c3ncc(Br)cc23)c1 [Example 14, 3-(5-bromo-1H-pyrrolo[2,3-b]pyridine-3-carbonyl)-N-propyl benzene sulfonamide] | ◯ (30 ≤ PoC) | ◯ (3 ≥ Ratio) | ◯ (3 ≥ Ratio) | ◯ (3 ≥ Ratio) | –

Second part, led by results:

MKK4 [% Ctrl @ 100 nM (MKK4 [1]) | selectivity based on % Ctrl @100 nM vs. Braf (BRaf) | selectivity based on % Ctrl @100 nM vs. MKK7 (MKK7) | selectivity based on % Ctrl @100 nM vs. JNK1 (JNK1) | SMILES | IC50 (MKK4 [2])
+++ (PoC < 1) | ++ (100 ≥ ratio > 10) | +++ (Ratio > 100) | +++ (Ratio > 100) | CCCS(=O)(=O)Nc1ccc(F)c(C(=O)c2c[nH]c3ncc(-c4ccc(OCC(O)CO)cc4Cl)cc23)c1F (centres unmarked) [Example 30, N-(3-(5-(2-chloro-4-(2,3-dihydroxypropoxy)phenyl)-1H-pyrrolo[2,3-b]pyridine-3-carbonyl)-2,4-difluorophenyl)propane-1-sulfonamide] | –
+ (3 ≤ PoC < 30) | ◯ (3 ≥ Ratio) | ++ (100 ≥ ratio > 10) | ++ (100 ≥ ratio > 10) | CCCS(=O)(=O)Nc1ccc(F)c(C(=O)c2c[nH]c3ncc(-c4ccc(OCC5COC(C)(C)O5)cc4)cc23)c1F (centres unmarked) [Example 29, N-(3-(5-(4-((2,2-dimethyl-1,3-dioxolan-4-yl)methoxy)phenyl)-1H-pyrrolo[2,3-b]pyridine-3-carbonyl)-2,4-difluorophenyl)propane-1-sulfonamide] | –
+ (3 ≤ PoC < 30) | ◯ (3 ≥ Ratio) | + (10 ≥ ratio > 3) | + (10 ≥ ratio > 3) | CCCS(=O)(=O)Nc1ccc(F)c(C(=O)c2c[nH]c3ncc(-c4ccc(OCC5COC(C)(C)O5)cc4Cl)cc23)c1F (centres unmarked) [Example 25, N-(3-(5-(2-chloro-4-((2,2-dimethyl-1,3-dioxolan-4-yl)methoxy)phenyl)-1H-pyrrolo[2,3-b]pyridine-3-carbonyl)-2,4-difluorophenyl)propane-1-sulfonamide] | –
++ (1 ≤ PoC < 3) | ++ (100 ≥ ratio > 10) | ++ (100 ≥ ratio > 10) | ++ (100 ≥ ratio > 10) | O=C(c1c(F)ccc(NS(=O)(=O)Cc2ccccc2)c1F)c1c[nH]c2ncc(-c3ccc(F)cc3)cc12 [Example 28, N-(2,4-difluoro-3-(5-(4-fluorophenyl)-1H-pyrrolo[2,3-b]pyridine-3-carbonyl)phenyl)-1-phenylmethanesulfonamide] | –

— patent US11912701B2, “Protein kinase inhibitors for promoting liver regeneration or reducing or preventing hepatocyte death” (HEPAREGENIX GMBH, priority 2018, dated 2024)
